Source: patent publication US9181187B2, “Therapeutic agent for urinary excretion disorder” (ONO PHARMACEUTICAL CO., LTD., priority 2007, dated 2015)
pIC50: −log10 of the molar value.

Experiments:
male cynomolgus monkeys = assay: Animal model of dysuria induced by intravesical infusion of ATP (singlecystometry); type: in vivo, cynomolgus monkey; settings: ATP solution intravesical, compound A 0.1 mg/kg subcutaneous
Method: After administration of ketamine hydrochloride anesthesia (15 to 20 mg/kg), male cynomolgus monkeys (11 years, 3 male (symbol “∘” in the FIG. 1 and FIG. 2 represents individual one.)) were fixed onto a stereotaxic operating table. The top of the bladder catheter was connected to a pressure transducer via a three-way stopcock, and intravesical pressure was recorded using a distortion amplifier and a recorder. The other end of the three-way stopcock were connected to a syringe for intravesical infusion to which an infusion pump was connected and a extension tube which satisfied physiological saline to remove residual urine from bladder.
The physiological saline was infused into the bladder at an infusion rate of 1.5 to 7.0 mL/min, and immediately after completion of voiding, the intravesical infusion was terminated and residual urine was removed (hereinafter, the above procedures is assumed singlecystometry.) and the procedures were repeated. […] Urinary flow rate (voided volume per voiding time (mL/sec)) and residual urine rate (residual urine volume per voided volume (%)) were calculated for each of the singlecystometry before ATP perfusion, after ATP perfusion and after ATP perfusion conducted after administration of the compound A. The results are shown in FIG. 1 and FIG. 2.

mouse EP1 receptor = mouse EP1 receptor (Mus musculus (Mouse), UniProt P35375); assay: Measurement of EP1 Antagonist Activity (inhibition of PGE2-induced increase in intracellular calcium); type: cell-based; settings: cells expressing mouse EP1 receptor; increase in intracellular calcium induced by PGE2 (100 nM)
Chain of mouse EP1 receptor (P35375 whole entry): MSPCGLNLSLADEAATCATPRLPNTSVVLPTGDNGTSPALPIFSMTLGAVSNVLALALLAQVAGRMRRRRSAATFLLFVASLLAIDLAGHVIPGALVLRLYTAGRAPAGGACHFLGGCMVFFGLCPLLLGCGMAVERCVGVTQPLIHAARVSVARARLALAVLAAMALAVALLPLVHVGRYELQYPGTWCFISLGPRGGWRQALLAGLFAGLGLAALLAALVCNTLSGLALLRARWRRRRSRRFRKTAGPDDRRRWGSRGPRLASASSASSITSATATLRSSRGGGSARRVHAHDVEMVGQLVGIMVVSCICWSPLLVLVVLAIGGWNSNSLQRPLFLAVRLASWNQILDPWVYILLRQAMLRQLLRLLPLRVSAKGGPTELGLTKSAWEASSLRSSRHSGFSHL
Method: The cells expressing mouse EP1 receptor were seeded at 10^4 cells/well in 96-well plates and cultured for 2 days with 10% Fetal Bovine Serum (FBS)/alpha Modified Eagle Medium (αMEM) in the incubator (37° C., 5% CO2). The cells were washed with phosphate buffer, and load buffer (10% FBS/αMEM containing Fura2/AM (5 μM), indomethacin (20 μM) and probenecid (2.5 mM)) was then added to each well and cells were left standing for 1 hour. Load buffer of each well was discarded and assay buffer (Hank's Balanced Salt Solution (HBSS) containing indomethacin (2.5 mM), probenecid (2.5 mM), HEPES-NaOH (10 mM) and 0.1% (w/v) Bovine Serum Albumin (BSA)) was added to each well and plates were left at room temperature in a dark room for 1 hour. Afterwards, compounds of the present invention (10 μL) or PGE2 (10 μL) prepared with assay buffer was added to each well and intracellular calcium concentrations were measured using a Fluorescence Drug Screening System (FDSS-4000, Hamamatsu Photonics K.K.). Changes in ratio of fluorescent intensity at 500 nm in cells exposed to alternating 2 excitation wavelengths was monitored as changes in intracellular calcium concentrations.
IC50 values were calculated based on the response inhibition rate of increase in intracellular calcium concentrations induced by PGE2 (100 nM) and was used as an index of EP1 antagonistic activity.

| SMILES | pIC50 (mouse EP1 receptor) | Urinary flow rate (voided volume per voiding time) (male cynomolgus monkeys; FIG. 1) | Residual urine rate (residual urine volume per voided volume) (male cynomolgus monkeys; FIG. 2) |
| --- | --- | --- | --- |
| Cc1csc(S(=O)(=O)N(CC(C)C)c2ccc(C(F)(F)F)cc2OCc2ccc(C=CC(=O)O)cc2)n1 [Compound G, 4-[2-[N-isobutyl-N-(4-methyl-2-thiazolylsulfonyl)amino]-5-trifluoromethylphenoxymethyl]cinnamic acid] | 7.60 | – | – |
| Cc1csc(S(=O)(=O)N(c2cc(C)c(Cl)cc2OCc2ccc(-c3nnn[nH]3)cc2)C(C)C)n1 [Compound J, N-[4-chloro-5-methyl-2-[4-(5-tetrazolyl)phenylmethyloxy]phenyl]-N-isopropyl-(4-methyl-2-thiazolyl)sulfonylamide] | 8.31 | – | – |
| Cc1cc(OCc2ccc(-c3nnn[nH]3)cc2Cl)c(N(C(C)C)S(=O)(=O)c2cccnc2)cc1C [Compound K, N-[4,5-dimethyl-2-[2-chloro-4-(5-tetrazolyl)phenylmethyloxy]phenyl]-N-isopropyl-3-pyridylsulfonylamide] | 8.43 | – | – |
| Cc1csc(S(=O)(=O)N(c2cc(C)c(C)cc2OCc2ccc(-c3noc(=O)[nH]3)cc2)C(C)C)n1 [Compound L, N-[4,5-dimethyl-2-[4-(5-oxo-1,2,4-oxadiazol-3-yl)phenylmethyloxy]phenyl]-N-isopropyl-(4-methyl-2-thiazolyl)sulfonylamide] | 8.15 | – | – |

The next lines start with results.

| pIC50 (mouse EP1 receptor) | SMILES | Urinary flow rate (voided volume per voiding time) (male cynomolgus monkeys; FIG. 1) | Residual urine rate (residual urine volume per voided volume) (male cynomolgus monkeys; FIG. 2) |
| --- | --- | --- | --- |
| 8.16 | Cc1cc(C(=O)O)ccc1COc1cc2c(cc1N(CC(C)C)S(=O)(=O)c1nccs1)CCC2 [Compound A, 3-methyl-4-[6-[N-isobutyl-N-(2-thiazolylsulfonyl)amino]indan-5-yloxymethyl]benzoic acid] | recovered the urinary flow rate decreased by ATP | decreased the residual urine rate |
| 7.68 | Cc1ccc(S(=O)(=O)N(CC(C)C)c2cc3c(cc2OCc2ccc(C=CC(=O)O)cc2)CCC3)o1 [Compound E, 4-[6-[N-isobutyl-N-(5-methyl-2-furylsulfonyl)amino]indan-5-yloxymethyl]cinnamic acid] | – | – |
| 8.04 | Cc1cc(OCc2ccc(C=CC(=O)O)cc2C)c(N(CC(C)C)S(=O)(=O)c2cccnc2)cc1C [Compound I, 3-methyl-4-[2-[N-isobutyl-N-(3-pyridylsulfonyl)amino]-4,5-dimethylphenoxymethyl]cinnamic acid] | – | – |
